# Experimental data reported in patent publication US12448366B2, “Solid forms of pralsetinib” (Rigel Pharmaceuticals, Inc., priority 2020, dated 2025).
# Where two headings read alike, the source gives them in different places.
# Columns and labels:
# Assay type in all cases: physicochemical
# [1] = Dynamic vapor sorption (DVS); conditions: for DVS Mass Change: glutarate and succinate: between 2% and 90% relative humidity
# Procedure: Dynamic Vapor Sorption (DVS) was done using a DVS Intrinsic 1. The sample is loaded into a sample pan and suspended from a microbalance. A typical sample mass for DVS measurement is 25 mg. Nitrogen gas bubbled through distilled water provides the desired relative humidity. A typical measurement comprises the steps: • 1—Equilibrate at 50% RH • 2—50% to 2%. (50%, 40%, 30%, 20%, 10% and 2%) • a. Hold minimum of 5 mins and maximum of 60 minutes at each humidity. The pass criteria is less than 0.002% change • 3—2% to 95% (2%, 10%, 20%, 30%, 40%, 50%, 60%, 70%, 80%, 90%, 95%) • a. Hold minimum of 5 mins and maximum of 60 minutes at each humidity. The pass criteria is less than 0.002% change • 4—95% to 2% (95%, 80%, 70%, 60%, 50%, 40%, 30%, 20%, 10%, 2%) • a. Hold minimum of 5 mins and maximum of 60 minutes at each humidity. The pass criteria is less than 0.002% change • 5—2% to 50% (2%, 10%, 20%, 30%, 40%, 50%) • a. Hold minimum of 5 mins and maximum of 60 minutes at each humidity. The pass criteria is less than 0.002% change High Pressure Liquid Chromatography (HPLC)
# Dynamic Vapor Sorption (DVS) was performed using a DVS Intrinsic 1. The samples (12-31 mg) was loaded into a sample pan, suspended from a microbalance and exposed to a humidified stream of nitrogen gas. The sample was held for a minimum of 5 min at each level and only progressed to the next humidity level if there was <0.002% change in weight between measurements (interval: 60 seconds) or 240 min had elapsed. The following program was used: • 1—Equilibration at 50% RH • 2—50% to 2%. (50%, 40%, 30%, 20%, 10% and 2%) • 3—2% to 95% (2%, 10%, 20%, 30%, 40%, 50%, 60%, 70%, 80%, 90%, 95%) • 4—95% to 2% (95%, 80%, 70%, 60%, 50%, 40%, 30%, 20%, 10%, 2%) • 5—2% to 50% (2%, 10%, 20%, 30%, 40%, 50%) High Performance Liquid Chromatography (HPLC)
# [2] = One week (7 days) slurry stability by XRPD and HPLC; conditions: for stability slurrying 7 days in EtOAc / stability slurrying 7 days in EtOH / stability slurrying 7 days in EtOH:water (95:5 vol): XRPD and HPLC
# [3] = Salt screening: XRPD of wet cake, after drying under vacuum at 50° C., after exposure to 97% relative humidity; conditions: XRPD; for stability of salt solid form to humidification: 97% (>95%) relative humidity; for stability of salt solid form to drying: vacuum at 50° C.
# Procedure: Stock solutions of counter-ion were prepared in EtOH, MeOH, or EtOAc, depending on solubility. […] The solvent was allowed to evaporate at room temperature over the weekend and then placed at 50° C. under vacuum for 3 hours to remove any remaining solvent. Approximately 25 volumes solvent (0.6 mL) was added to each vial for screening. The three solvents selected were EtOH, EtOAc, and IPA:water (9:1 vol). […] XRPD analysis was done in three stages. XRPD of the wet cake was done for all samples. Unique solids were then left on XRPD plates and dried under vacuum at 50° C. XRPD of unique dry solids was then done. […] The humid environment was generated by placing a beaker of saturated potassium sulfate in water in a sealed container. All XRPD patterns were compared to counter ion XRPD patterns and known free base patterns. Where solids were not of sufficient quantity to isolate, the solvent was evaporated at room temperature, the material dried at 50° C. under active vacuum for 3 hours, and then reslurried at room temperature in either MtBE or IPAc overnight after heating to 45° C. for 30 minutes.
# [4] = Solubility in water and simulated fluids (fasted/fed state simulated intestinal fluid, fasted state simulated gastric fluid); conditions: for solubility: thermodynamic from solid
# [5] = Humidity exposure, 75% relative humidity at 40° C. for one week, XRPD; conditions: for stability on exposure to 75% relative humidity at 40° C.: one week / 7 days, XRPD
# [6] = Drying of free base solid forms (XRPD); conditions: for behaviour upon drying: XRPD
# [7] = Co-milling co-crystal screening, XRPD; conditions: co-milling with freebase
# Procedure: About 30 mg of Compound (I) freebase and 1.05 eq. of co-former were direct weighed into the milling capsule and manually mixed before the addition of 1 volume of solvent (MtBE, MeOAc, or EtOH). Each system was milled once for 30 seconds before solids were collected. Samples of the wet material were taken for XRPD of the ‘wet’ material before drying under active vacuum at 50° C. for 2 hours. Unique patterns were further exposed to 97% R.H. for 24 hours.
# [8] = Co-melting co-crystal screening, XRPD; conditions: co-melting with pralsetinib freebase, 1.05 eq. co-former
# Procedure: The resulting powder was packed into a 100 μL DSC pan and heated at a rate of 10° C./min to 10° C. above the melting temperature of the lowest melting component. The experiment was isothermally held for 5 min before cooling to room temperature at a rate of 10° C./min. Samples were then taken for XRPD.
compound,measurement,setting,value
"CO[C@]1(C(=O)N[C@@H](C)c2ccc(-n3cc(F)cn3)nc2)CC[C@H](c2nc(C)cc(Nc3cc(C)[nH]n3)n2)CC1 [Solid Form 14-A, pralsetinib]",hysteresis in the DVS plot,[1],minimal hysteresis
same,mass change by DVS,"[1]; between 2% and 90% relative humidity, listed as solid form 14-A",0.94 wt. %
same,mass change by DVS,"[1]; between 15% and 75% relative humidity, listed as solid form 14-A",0.86 wt. %
same,DVS Mass Change,[1]; listed as Phosphate 14-A,0.94 wt. %
same,reversibility of the DVS mass change,[1]; listed as solid form 14-A,appears to be reversible
same,Stability 7-day slurry,[2],Stable
same,stability slurrying 7 days in EtOAc,[2]; listed as solid form 14-A,stable
same,stability slurrying 7 days in EtOH,[2]; listed as solid form 14-A,stable
same,stability slurrying 7 days in EtOH:water (95:5 vol),[2]; listed as solid form 14-A,stable
same,reduction (HPLC purity) after 7 days slurry,[2]; materials isolated from EtOAc,0.07%
same,stability of salt solid form to humidification,[3]; listed as Pattern 14-A,stable
same,stability of salt solid form to humidification,[3]; listed as phosphate 14-A,stable
same,stability of salt solid form to humidification,[3]; listed as solid form 14-A,stable
same,stability of salt solid form to drying,[3]; listed as Pattern 14-A,stable
same,stability of salt solid form to drying,[3]; listed as phosphate 14-A,stable
same,stability of salt solid form to drying,[3]; listed as solid form 14-A,stable
same,solubility,"[4]; fasted state simulated gastric fluid, fassgf or other biorelevant, read-out: Solubility in fasted state simulated gastric fluid",1760 µg/mL
same,residual solid after solubility test,"[4]; fasted state simulated gastric fluid, listed as solid form 14-A",amorphous
same,residual solid after solubility test,[4]; fasted state simulated intestinal fluid,pralsetinib freebase solid form A
same,residual solid after solubility test,[4]; fed state simulated intestinal fluid,amorphous
same,solubility,"[4]; fed state simulated intestinal fluid, fessif, read-out: Solubility in fed state simulated intestinal fluid",490 µg/mL
same,Solubility in fasted state simulated intestinal fluid,[4]; listed as solid form 14-A,200 µg/mL
same,Solubility in water,[4]; listed as solid form 14-A,1700 µg/mL
same,solubility in water,[4]; listed as solid form 14-A,high solubility
same,residual solid after solubility test,[4]; water,XRPD Pattern 14-A
same,Stability 40° C./75% RH,"[5]; XRPD pattern after exposure, listed as Phosphate 14-A",Stable
same,stability on exposure to 75% relative humidity at 40° C.,[5]; listed as solid form 14-A,stable
"CO[C@]1(C(=O)N[C@@H](C)c2ccc(-n3cc(F)cn3)nc2)CC[C@H](c2nc(C)cc(Nc3cc(C)[nH]n3)n2)CC1 [Solid Form I, pralsetinib]",behaviour upon drying,[6]; listed as Pattern I,lost crystallinity
O=C(O)c1ccccc1 [Benzoic Acid],Wet (XRPD),"[7]; solvent MtBE, MeOAc, EtOH",FB-C
same,Dry (XRPD),[8],Am.
COc1cc(C(=O)O)ccc1O [Vanillic Acid],Wet (XRPD),[7]; solvent EtOH,FB-C
same,Wet (XRPD),"[7]; solvent MtBE, MeOAc",FB-C + vanillic acid
same,Dry (XRPD),[8],Am.
"CO[C@]1(C(=O)N[C@@H](C)c2ccc(-n3cc(F)cn3)nc2)CC[C@H](c2nc(C)cc(Nc3cc(C)[nH]n3)n2)CC1 [Solid Form D, pralsetinib]",behaviour sitting in atmosphere,[6],converted to other solid forms
same,behaviour upon drying,[6],converted to solid form B
O=C1NS(=O)(=O)c2ccccc21 [Saccharin],Wet (XRPD),[7]; solvent EtOH,Am. + 1 peak
same,Wet (XRPD),[7]; solvent MeOAc,Am. + trace FB-C
same,Wet (XRPD),[7]; solvent MtBE,FB-C + saccharin
same,Dry (XRPD),[8],Am.
Urea,Wet (XRPD),[7]; solvent EtOH,16-B + FB-C
same,Humidity (XRPD),"[7]; solvent EtOH, 97% R.H. for 24 hours",16-B + FB-C
same,Wet (XRPD),"[7]; solvent MtBE, MeOAc",FB-C + urea
same,Dry (XRPD),[8],FB-A +
"CO[C@]1(C(=O)N[C@@H](C)c2ccc(-n3cc(F)cn3)nc2)CC[C@H](c2nc(C)cc(Nc3cc(C)[nH]n3)n2)CC1 [Solid Form P, pralsetinib]",behaviour upon drying,[6],unstable upon drying and converted to a mixture of material characterized by XRPD Pattern P and XRPD Pattern L and extra peaks
O.O.O=c1c(O)c(-c2ccc(O)c(O)c2)oc2cc(O)cc(O)c12 [Quercetin Dihydrate],Wet (XRPD),"[7]; solvent MtBE, MeOAc, EtOH",FB-C + quercetin
same,Dry (XRPD),[8],Am.
"CO[C@]1(C(=O)N[C@@H](C)c2ccc(-n3cc(F)cn3)nc2)CC[C@H](c2nc(C)cc(Nc3cc(C)[nH]n3)n2)CC1 [Solid Form K, pralsetinib]",behaviour upon drying,[6],unstable on drying and converted to material characterized by XRPD Pattern M
"CO[C@]1(C(=O)N[C@@H](C)c2ccc(-n3cc(F)cn3)nc2)CC[C@H](c2nc(C)cc(Nc3cc(C)[nH]n3)n2)CC1 [Solid Form 15-A, pralsetinib]",mass change by DVS,"[1]; between 2% and 90% relative humidity, listed as solid form 15-A",3.4 wt. %
same,mass change by DVS,"[1]; between 15% and 75% relative humidity, listed as solid form 15-A",1.9 wt. %
same,DVS Mass Change,[1]; listed as Succinate 15-A,3.40 wt. %
same,reversibility of the DVS mass change,[1]; listed as solid form 15-A,appears to be reversible
same,stability slurrying 7 days in EtOAc,[2]; listed as Solid form 15-A,stable
same,stability slurrying 7 days in EtOH,[2]; listed as Solid form 15-A,stable
same,reduction in purity after 7 days slurry,[2]; EtOH:water (95:5 vol) slurry,0.13%
same,stability slurrying 7 days in EtOH:water (95:5 vol),[2]; listed as Solid form 15-A,converted to Pattern 15-C
same,stability of salt solid form to humidification,[3]; listed as Pattern 15-A,stable
same,stability of salt solid form to humidification,[3]; listed as succinate 15-A,stable
same,stability of salt solid form to drying,[3]; listed as succinate 15-A,stable
same,solubility in simulated gastric fluid,[4],high solubility
same,residual solid after solubility test,"[4]; fasted state simulated gastric fluid, listed as solid form 15-A",solid form 15-D
same,Solubility in fasted state simulated gastric fluid,[4]; listed as solid form 15-A,1120 µg/mL
same,Solubility in fasted state simulated intestinal fluid,[4]; listed as solid form 15-A,20 µg/mL
same,Solubility in fed state simulated intestinal fluid,[4]; listed as solid form 15-A,840 µg/mL
same,Solubility in water,[4]; listed as solid form 15-A,450 µg/mL
same,stability on exposure to 75% relative humidity at 40° C.,[5]; listed as Solid form 15-A,converted to Pattern 15-A+B
O=C(O)c1cc(O)ccc1O [Gentisic Acid],Wet (XRPD),"[7]; solvent MtBE, MeOAc, EtOH",FB-C
same,Dry (XRPD),[8],Am.
"CO[C@]1(C(=O)N[C@@H](C)c2ccc(-n3cc(F)cn3)nc2)CC[C@H](c2nc(C)cc(Nc3cc(C)[nH]n3)n2)CC1 [Solid Form Q, pralsetinib]",behaviour upon drying,[6],lost crystallinity
"CO[C@]1(C(=O)N[C@@H](C)c2ccc(-n3cc(F)cn3)nc2)CC[C@H](c2nc(C)cc(Nc3cc(C)[nH]n3)n2)CC1 [Solid Form J, pralsetinib]",behaviour upon drying,[6],unstable and quickly converted to amorphous
same,behaviour upon drying,[6]; listed as Pattern J,either lost crystallinity or became amorphous
O=C(O)c1ccc(O)cc1 [4-Hydroxybenzoic Acid],Wet (XRPD),"[7]; solvent MtBE, MeOAc, EtOH",FB-C
same,Dry (XRPD),[8],Am.
Nc1ccc(C(=O)O)cc1 [4-Aminobenzoic Acid],Wet (XRPD),[7]; solvent EtOH,FB-C
same,Wet (XRPD),"[7]; solvent MtBE, MeOAc",FB-C + 4-Aminobenzoic
"CO[C@]1(C(=O)N[C@@H](C)c2ccc(-n3cc(F)cn3)nc2)CC[C@H](c2nc(C)cc(Nc3cc(C)[nH]n3)n2)CC1 [Solid Form L, pralsetinib]",behaviour upon drying,[6]; listed as Pattern L,stable
